Assay results from US4897403A, “Antimalarial compositions and methods” (The United States of America as represented by the …, priority 1986, dated 1990).
Read-outs that look alike come from different tables or passages of the source.

Tests used:
[1] = tested on: Isolates of P. falciparum from Thailand; conditions: cited from earlier work
[2] = tested on: chloroquine-sensitive West African clone (D-6); assay: In vitro susceptibility (radiolabelled hypoxanthine incorporation, semi-automated microdilution), Example 1, clone D-6; assay type: cell-based, P. falciparum; conditions: Plasmodium falciparum
Procedure: (§1) Throughout the examples, incorporation of radiolabelled hypoxanthine was used to measure a synchronous growth of the malarial parasites and inhibition of incorporation was the measured parameter of the parasites' rsponse to the drugs. Semi-automated microdilution techniques as disclosed by R. E. Desjardins et al, Antimicrob.
(§2) First, the antimalarial properties of verapamil (a calcium channel blocker "reversing compound") in vitro were studied. […] The drug combinations were dosed in fixed ratios of their 50% inhibitory concentrations.

[3] = tested on: chloroquine-resistant clone from Indochina (W-2); assay: microbe, parasite or virus in culture; conditions: Plasmodium falciparum
Procedure: as §1, §2
(§3) The IC50 's of each drug in combination set forth in Table 1 were then calculated as a fraction of the control IC50 and plotted as a fraction of one unit of IC50 in FIG. 1. […] The line connecting each unit of IC50 for each clone represents the additivity of drug effects.

[4] = tested on: chloroquine-sensitive West African clone (D-6); assay: Effect of verapamil on chloroquine sensitivity, Example 2, clone D-6; assay type: cell-based, P. falciparum; conditions: Plasmodium falciparum, clone D-6, CQ sensitive, IC50 + 1SD
Excerpt: as §1

[5] = tested on: chloroquine-resistant clone from Brazil (IEC 306); assay: microbe, parasite or virus in culture; assay type: cell-based, P. falciparum; conditions: Plasmodium falciparum
Procedure: as §1, §2, §3

[6] = tested on: chloroquine-resistant clone from Indochina (W-2); assay: microbe, parasite or virus in culture; assay type: cell-based, P. falciparum; conditions: for IC50: Plasmodium falciparum
Excerpt: as §1

malarial parasites = assay: Antimalarial properties of verapamil in vitro; assay type: cell-based, P. falciparum
Procedure: as §1, §2

[7] = tested on: malarial parasite growth or hypoxanthine uptake; assay: Effect of verapamil alone on malarial parasite growth or hypoxanthine uptake in vitro; assay type: cell-based, P. falciparum; conditions: 1×10^-6 M and 2×10^-6 M
Excerpt: as §1

C=C[C@H]1C[N@@]2CC[C@H]1C[C@H]2[C@H](O)c1ccnc2ccc(OC)cc12 [quinine]
resistance of isolates in vitro [1]: resistant

CCN(CC)CCCC(C)Nc1ccnc2cc(Cl)ccc12 (stereo not shown) [chloroquine]
IC50 ([2]; read-out: IC50 of chloroquine in drug combination, CQ 25 nM/VER 75 μM fixed ratio, clone D-6): 4.4 nM
IC50 ([2]; read-out: IC50 of chloroquine in drug combination, CQ 50 nM/VER 50 μM fixed ratio, clone D-6): 8 nM
IC50 ([2]; read-out: IC50 of chloroquine in drug combination, CQ 75 nM/VER 25 μM fixed ratio, clone D-6): 11.4 nM
IC50 ([2]; read-out: fifty percent inhibitory concentration (IC50), single drug chloroquine, chloroquine alone, clone D-6): 14.1 nM
IC50 ([3]; read-out: IC50 of chloroquine in drug combination, CQ 25 nM/VER 75 μM fixed ratio, clone W-2): 1.5 nM
IC50 ([3]; read-out: IC50 of chloroquine in drug combination, CQ 50 nM/VER 50 μM fixed ratio, clone W-2): 1.3 nM
IC50 ([3]; read-out: IC50 of chloroquine in drug combination, CQ 75 nM/VER 25 μM fixed ratio, clone W-2): 3.8 nM
IC50 ([4]; read-out: IC50 of chloroquine + 1 × 10^-6 M VER, with 1 × 10^-6 M verapamil): 7.8 ± 0.6 nM
IC50 ([4]; read-out: IC50 of chloroquine + 2 × 10^-6 M VER, with 2 × 10^-6 M verapamil): 8.8 ± 0.3 nM
resistance of isolates in vitro [1]: resistant
IC50 ([5]; read-out: IC50 of chloroquine in drug combination, CQ 25 nM/VER 75 μM fixed ratio, clone IEC-306): 2.8 nM
IC50 ([5]; read-out: IC50 of chloroquine in drug combination, CQ 50 nM/VER 50 μM fixed ratio, clone IEC-306): 6.3 nM
IC50 ([5]; read-out: IC50 of chloroquine in drug combination, CQ 75 nM/VER 25 μM fixed ratio, clone IEC-306): 11.7 nM
IC50 ([5]; read-out: fifty percent inhibitory concentration (IC50), single drug chloroquine, chloroquine alone, clone IEC-306): 52.3 nM
IC50 ([6]; read-out: IC50 of chloroquine + 1 × 10^-6 M VER): 8.4 ± 0.4 nM
IC50 ([6]; read-out: IC50 of chloroquine + 2 × 10^-6 M VER): 5.6 ± 0.3 nM
sensitivity of chloroquine-resistant clone to chloroquine in presence of verapamil (FIGS. 2 and 3) ([6]; constant concentration of verapamil, compared with chloroquine-sensitive West African clone): as sensitive to the chloroquine treatment as the chloroquine-sensitive West African clone

COc1ccc(CCN(C)CCCC(C#N)(c2ccc(OC)c(OC)c2)C(C)C)cc1OC (stereo not shown) [verapamil]
IC50 (malarial parasites; Plasmodium falciparum, read-out: inhibitory concentration (IC50)): 6 to 8 µg/mL
fold less potent than chloroquine or mefloquine (malarial parasites; verapamil vs chloroquine or mefloquine, in vitro): 1,000 fold
effect on malarial parasite growth or hypoxanthine uptake in vitro [7]: no significant effects

OC(c1cc(C(F)(F)F)nc2c(C(F)(F)F)cccc12)C1CCCCN1 (stereo not shown) [mefloquine]
resistance of isolates in vitro [1]: resistant
